# According to US20210179632A1, “THIENOPIPERIDINE DERIVATIVE AND USE THEREOF” (JIANGSU TASLY DIYI PHARMACEUTICAL CO. LTD., priority 2013, published 2021):
# Tested on: platelet aggregation induced by ADP
# Assay: Platelet aggregation induced by ADP in platelet-rich plasma of rats drawn 2 hours after dosing (NJ4 Semi-Platelet Aggregation Analyzer)
# Type: in vivo
# Conditions: male Wistar rats, 3 mg/kg as suspension in 0.25 wt % CMC, blood drawn 2 hours after administration, negative control 61.22 ± 4.73, * P < 0.001
# Source text: The maximum aggregation rate of irreversible condensed phase can be used to evaluate the effect of subject products on coagulation function. The experiment used NJ4 type Semi-Platelet Aggregation Analyzer of precil company, to survey the inhibitory effect of the subject products provided by Tasly Holding Group. Co. Ltd on platelet aggregation. • Materials • Animals: male Wistar rats, body weight 230-250 g, bought from Beijing Vital River Laboratory • Animal Technology Co. Ltd., animal certification number:SCXK ( ? ) 2007-0001. • Reagents: ADP, bought from Sigma company; clopidogrel was prepared referring to the method in Chinese Journal of Medicinal Chemistry 2007, 17 (3) 163-165; prasugrel was prepared referring to the method in Chinese Journal of Pharmaceuticals 2012, 43 (8) 647-649; vicagrel was prepared referring to the method in Journal of Medicinal Chemistry, 2012, 55(7), 3342-3352. • Subject products: 7 subject products were all provided by Tasly Holding Group. Co. Ltd. • Administration dosage: subject products were suspensed in CMC in a concentration of 0.25 wt %, were administered in a dosage of 3 mg/kg body weight, the administration volume was 2 ml.
# 2 hours after administering drugs to the rats, anesthesia with mebubarbital, draw blood from abdominal aorta, anticoagulation with sodium citrate 1:9. Obtained platelet-rich plasma and platelet-poor plasma by centrifugation, the volume ratio of the two was platelet-poor plasma:platelet-rich plasma=3:1.
row,SMILES,The maximum aggregation rate of platelet irreversible condensed phase
1,"COC(=O)[C@H](c1ccccc1Cl)N1CCc2sccc2C1 [Clopidogrel, reference compound]",46.77 ± 8.28*
2,"CC(=O)Oc1cc2c(s1)CCN(C(C(=O)C1CC1)c1ccccc1F)C2 (stereo not drawn) [Prasugrel, prasugrel, reference compound]",20.72 ± 18.84*
3,COC(=O)[C@H](c1ccccc1Cl)N1CCc2sc(OP(=O)(OC)OC)cc2C1 [TSC-1],45.8 ± 3.55*
4,CCOP(=O)(OCC)Oc1cc2c(s1)CCN([C@H](C(=O)OC)c1ccccc1Cl)C2 [TSC-2],41.7 ± 7.43*
5,COC(=O)[C@H](c1ccccc1Cl)N1CCc2sc(OP(=O)(OC(C)C)OC(C)C)cc2C1 [TSC-3],38.7 ± 4.27*
6,COC(=O)[C@H](c1ccccc1Cl)N1CCc2sc(OP(=O)(Oc3ccccc3)Oc3ccccc3)cc2C1 [TSC-4],46.5 ± 8.16*
7,COC(=O)[C@H](c1ccccc1Cl)N1CCc2sc(OP(=O)(OCC(Cl)(Cl)Cl)OCC(Cl)(Cl)Cl)cc2C1 [TSC-5],39.1 ± 5.66*
8,COC(=O)[C@H](c1ccccc1Cl)N1CCc2sc(OP(=O)(O)O)cc2C1 [TSC-6],29.6 ± 5.33*
9,COC(=O)[C@H](c1ccccc1Cl)N1CCc2sc(OCOP(=O)(OC(C)(C)C)OC(C)(C)C)cc2C1 [TSC-7],39.2 ± 6.16*
10,COC(=O)[C@H](c1ccccc1Cl)N1CCc2sc(OCOP(=O)(O)O)cc2C1 [TSC-8],32.7 ± 9.21*
11,COC(=O)[C@H](c1ccccc1Cl)N1CCc2sc(OS(=O)(=O)O)cc2C1 [TSC-9],25.7 ± 3.25*
12,"COC(=O)[C@H](c1ccccc1Cl)N1CCc2sc(OC(C)=O)cc2C1 [Vicagrel, vicagrel, reference compound]",32.36 ± 5.14*
